Test results taken from US8575376B2, “Steroide anionic compounds, method of their production, usage and pharmaceutical preparation involving them” (Ustav Organicke Chemie A Biochemie Akademie Ved Ceske …, priority 2009, dated 2013).

How the values were obtained:
mice (ICR) = assay: Depression-like behavior induced by repeated social defeat, open field; format: in vivo, mouse; details: 1 and 10 mg/kg orally, 30 min prior
Method: Naive adult male mice (albino out-bred strain ICR, VELAZ s.r.o., Prague, Czech Republic, 30-37 g) were used in this study. Food and water were available ad libitum. Mice were housed either individually without any handling in self-cleaning cages with a grid floor (8×6×13 cm) or in groups of 17-20 in standard plastic cages (38×22×14 cm) with the floors covered with wooden shavings. After 3 weeks, each individually housed mouse was allowed 30 min adaptation in a Plexiglas neutral observation cage (20×20×30 cm) with clean wooden shavings before it was coupled with a group-housed male partner for 4 min/day. […] Animals were housed, and behavioural testing was performed in a different room during the light phase of the constant light-dark cycle with lights on at 6:00 and off at 18:00 h. Temperature was maintained at 21° C., and relative humidity was 50%. The mice were not handled except on the experimental days.
Group-housed males were used for the experiment. […] Over a 3-min testing period, the distance traveled, as a marker of locomotor/exploratory behaviour, in the open field was measured. […] Thirty minutes following the drug administration, the animal was placed into the open field arena and distance traveled was measured, as described before. […]

rats = assay: Ischemic-hypoxic brain damage (bilateral carotid occlusion + 10% O2): AAPA, rotarod, beam walking; format: in vivo, rat
Method: The effect of compound from example 9 on cognitive coordination and motor activity was examined in stroke model of ischemic brain injury. Ischemic-hypoxic damage was induced by bilateral occlusion of common carotid arteries and subsequent confinement in box with 10% O2 (for 30 min). The animals were injected i.p. by compound from example 9 dissolved in β-cyclodextrine (1 mg/kg) immediately after their removal from box. Ischemic group was injected only by β-cyclodextrine in the same time and volume. Surgery was conducted under anesthesia (xylazine 6 mg/kg, thiopental 50 mg/kg).
It is known that ischemia-hypoxia causes neuronal necrosis in specifically vulnerable areas of brain. The two-vessel occlusion/hypoxic model gives rise to stroke changes, for example in cells of the hippocampus, caudatoputamen and neocortex. As such structures are intimately involved in memory, cognitive and motor processes, ischemia/hypoxia leads to impairment in these functions. Used animal model of stroke damage dealing with ischemia/hypoxia has enabled the identification of deleterious phenomena that may be corrected or neutralized by drugs.
The effect of ischemic was evaluated a week after surgical procedures in AAPA task, beam walking and rotarod. Ischemia led to deterioration of motor activity (rotarod and beam walking) and deficit in cognitive coordination.

Long-Evans rats = assay: Scopolamine-induced cognitive deficit in AAPA (model of Alzheimer disease); format: in vivo, rat; details: Example 9 1 ml/kg of 1.0 mg/ml i.p. + scopolamine 2.0 mg/kg
Method: The effect of the compound from example 9 on an animal model of age-related cognitive decline and neurodegenerative disorders (including Alzheimer disease) is documented. In the present experiment the effect of central muscarinic blockade by systemic administration of scopolamine at dose 2.0 mg/kg on both reinforced retention of the AAPA and re-acquisition of the AAPA in a new environment was investigated (by the standard method described previously; see Vales and Stuchlik, 2005).
The compound from example 9 was dissolved in β-cyclodextrine (at a concentration of 1.0 mg/ml). Animals were injected intraperitoneally with 1 ml/kg b.w. of this solution or with 1 ml/kg b.w. of β-cyclodextrine. All animals thus received the same volume of liquid per body weight in each injection. Injections were delivered 40 min prior to behavioural testing). Scopolamine hydrobromide (scopolamine; Sigma Aldrich) was dissolved in saline (0.9% NaCl, 2.0 mg/ml). Animals were injected intraperitoneally with 1 ml/kg b.w. of this solution or with 1 ml/kg b.w. of saline. All animals thus received the same volume of liquid per body weight in each injection. Injections were delivered 20 min prior to behavioural testing. Adult male hooded rats of the Long-Evans strain (3 months old; weighing 300-400g) was used.
The active allothetic place avoidance apparatus is described in example 28. […]

[1] = 1 mg/kg i.p. immediately after hypoxia, tested a week later

CC(=O)[C@H]1CC[C@H]2[C@@H]3CC[C@@H]4C[C@H](OC(=O)[C@@H](N)CCC(=O)O)CC[C@]4(C)[C@H]3CC[C@]12C [Example 9, 20-Oxo-5β-pregnan-3α-yl L-glutamyl 1-ester]
hypolocomotion in open field after repeated social defeat (mice (ICR)): reduced a hypolocomotion in an open field induced by agonistic interactions in mice
total path in AAPA after ischemia/hypoxia (rats; 1 mg/kg i.p.): None of the experimental condition affected locomotion in AAPA
cognitive deficit in AAPA (entrances) after ischemia/hypoxia (rats; [1]): improves cognitive deficit induced by ischemic/hypoxic procedures in AAPA task
motor changes in rotarod and beam walking after ischemia/hypoxia (rats; [1]): has no effect on disturbance of motor changes in rotarod and beam walking test
scopolamine-induced deficit in AAPA (number of entrances) (Long-Evans rats): tends to be decreased
